From patent US8426179B2, “Synthetic peptide and peptide conjugates and related tissue coupling methods via transglutaminase enzyme” (priority 2007, dated 2013)
Entries after “also recorded” stand apart in the source; their conditions may differ. Residues, ends and D or L forms follow the SMILES beside them. *: point of attachment. X1 = C[C@]12CCC(=O)C=C1CC[C@@H]1[C@@H]2[C@@H](O)C[C@@]2(C)[C@H]1CC[C@]2(O)C(=O)COC(=O)CCC(=O)*

Key:
cartilage = conditions: for average depth of peptide coupling: with tTG, chondroitinase ABC digested cartilage, along the cut edge
Procedure: For the coupling of peptide conjugates to cartilage sections, osteochondral plugs were extracted from adult bovine metacarpophalangeal joints using a hole punch with a diameter of 0.793 cm. Samples were then frozen in tissue freezing media and stored at −80° C. until use. Vertical sections (25 μm), which included the articular surface as well as a portion of the underlying bone, were cut using a cryostat (Microm HM505N, Carl Zeiss) and the freezing media was removed with 3 washes of Tris buffered saline (TBS) (50 mM Tris, 100 mM NaCl) at pH 7.4. For the penetration studies, four millimeter by two millimeter rectangular samples of cartilage were excised from adult bovine metacarpophalangeal joint to a depth of 200-250 microns from the articular surface. Samples were frozen as described earlier for later use, at which time they were thawed and rinsed in TBS.
Four millimeter by two millimeter rectangular samples of cartilage were thawed and rinsed, after which the chondroitinase ABC digestion and tTG reactions with the peptide and peptide-PEG conjugates were performed as stated above. […] The samples were then frozen in tissue freezing media followed by cutting using a cryostat. Twenty micron thick vertical sections were collected from each cartilage piece, rinsed in TBS, blocked with 1% BSA TBS containing 0.1% Tween (TBST), and incubated with peroxidase conjugated anti-biotin antibody at 5 μg/mL in 1% BSA in TBS-T for 2 hours at room temperature. Samples were rinsed 4 times with TBS and 4 times with distilled water. Finally, the anti-biotin antibody was detected using a DAB kit which contains the peroxidase substrate 3,3′-diaminobenzidine yielding a brown color. Samples were imaged using a Leica microscope (brightfield) and a SPOT RT digital camera.
Adobe Photoshop (Adobe, Inc, San Jose, Calif.) was used to measure the depth to which the peptide and peptide-PEG conjugates were detected. The depth of staining into the cartilage along the cut surface perpendicular to the articular surface was measured at distances of 60, 120 and 180 microns from the articular surface for each sample. The average depth of staining for each sample was calculated from these three measurements. For each peptide and peptide-PEG conjugate, an overall mean depth of staining was determined from the measurements of three samples.
In a separate series of experiments, 2 mm by 4 mm by 200-250 μm pieces of cartilage were incubated with each peptide-PEG conjugate and tTG. At the completion of the reaction, the cartilage pieces were frozen and sectioned and the coupled peptide conjugates were detected with a perioxidase anti-biotin antibody. The bound antibody was detected with DAB reagent which forms a brown precipitate in the presence of perioxidase. […] The depth of peptide penetration and coupling was measured along the cut edge at 60, 120, and 180 μm from the articular surface as shown schematically in FIG. 6.

cartilage sections = test: Coupling of peptide conjugates to cartilage sections via tTG, fluorescein anti-biotin staining; type: biochemical, bovine
Procedure: Partial depolymerization of glycosaminoglycans in the tissue was accomplished by digesting with chondroitinase ABC at 40 mU/mL in 50 mM Tris, 70 mM sodium acetate and 0.01% bovine serum albumin (BSA) at pH 8 for 30 minutes at 37° C. Samples were then rinsed 3 times with TBS and blocked with 1% BSA in TBS for one hour at room temperature. The tTG reaction conditions used were similar to a previously described method. (See, Aeschlimann D, Wetterwald A, Fleisch H, and Paulsson M. Expression of tissue transglutaminase in skeletal tissues correlates with events of terminal differentiation of chondrocytes. Journal of Cell Biology 1993; 120: 1461-1470.) The cartilage sections were incubated in 500 μL of 50 μM peptide or peptide-PEG conjugate, 0.5 U/mL tTG, 5 mM CaCl2, 2.5 mM dithiothreitol and 100 mM Tris, at pH 8.3 for 30 min at 37° C. Control experiments were performed in the absence of tTG. After completion of the tTG reaction, the solution was removed and samples were rinsed 3 times with 1% BSA in TBS for 5 minutes each. The cartilage sections were then incubated with fluorescein conjugated anti-biotin antibody at 10 μg/mL in 1% BSA in TBS for 2 hours at room temperature. Samples were rinsed 4 times with TBS for 5 minutes each, followed by blocking with 10% donkey serum for 1 hour and incubation with rabbit anti-collagen II antibody in TBS containing 10% donkey serum for 1 hour. The samples were rinsed 3 times with 10% donkey serum in TBS and then incubated with Texas Red conjugated donkey anti-rabbit antibody. Samples were rinsed again with TBS and then imaged using a Leica epifluorescent microscope (λex=495 nm, λem=520 for fluorescein and λex=596 nm, λem=620 for Texas Red) and a SPOT RT digital camera (Diagnostic Instruments, Sterling Heights, Mich.).
Images were analyzed using Metamorph image analysis software (Molecular Devices, Sunnyvale, Calif.). Fluorescein fluorescence was measured at three randomly selected areas of the middle zone on each cartilage section image and then averaged. A similar procedure was utilized to determine Texas Red fluorescence. The fluorescein fluorescence intensity was then normalized to the fluorescence of the Texas Red for each cartilage section image in order to account for potential ECM differences between sections. Finally, the average green fluorescence for each peptide-PEG conjugate was then normalized by dividing by the red fluorescence.

osteopontin = target: T1, osteopontin (Homo sapiens, UniProt P10451); test: Reaction of peptide conjugates with cartilage ECM protein in solution via tTG; type: biochemical; conditions: for reactivity / normalized band intensity on western blot: osteopontin, 500 μM conjugate, 0.05 U/mL tTG, 30 min at 37° C.; for number of conjugate molecules coupled per protein (MALDI-TOF): osteopontin with tTG
T1 construct: purchased R&D Systems, Minneapolis, Minn
Procedure: (§1) Fibronectin, collagen II, osteonectin, and osteopontin were separately combined at 0.1% (w/v) in 100 mM Tris and 5 mM CaCl2 with 500 μM peptide-PEG conjugates and 0.05 U/mL tTG. The reaction was allowed to proceed for 30 min at 37° C. and then stopped with the addition of iodoacetamide (1 mM final concentration). Control experiments without transglutaminse were also performed. The proteins were then separated using SDS-PAGE with either 7.5% fibronectin and collagen II) or 10% (osteonectin and osteopontin) gels, transferred to PVDF membranes which were then blocked with 2% BSA in TBS with 0.1% Tween (TBS-T). The modified proteins were probed with peroxidase conjugated ExtrAvidin. Detection of bound ExtrAvidin was accomplished using ECL Plus Western Blotting Detection Reagents and imaged on a Storm 860 imager (GE Healthcare Biosciences, Piscataway, N.J.). Band intensities were measured using ImageQuant (GE Healthcare Biosciences). Statistical analysis was performed using one-way ANOVA and Tukey's post-hoc test with 95% confidence intervals with SPSS (SPSS, Chicago, Ill.). Reactions of B72Q and B72K with osteonectin and osteopontin were dialyzed against 10 mM acetic acid and then analyzed by MALDI-TOF MS.

collagen II = target: T2, collagen II (Homo sapiens, UniProt P02458); test: as above; type: biochemical; conditions: type II collagen, 500 μM conjugate, 0.05 U/mL tTG, 30 min at 37° C.
T2 construct: isolated by pepsin digestion, which yields primarily the triple helical region of collagen II; purchased Chondrex, Redmond, Wash
Procedure: as §1

Fibronectin = target: T3, Fibronectin (Homo sapiens, UniProt P02751); test: as above; type: biochemical; conditions: 500 μM conjugate, 0.05 U/mL tTG, 30 min at 37° C.
T3 construct: purchased Sigma, St. Louis, Mo
Procedure: as §1

osteonectin = target: T4, osteonectin (Homo sapiens, UniProt P09486); test: as above; type: biochemical; conditions: for reactivity / normalized band intensity on western blot: osteonectin, 500 μM conjugate, 0.05 U/mL tTG, 30 min at 37° C.; for number of conjugate molecules coupled per protein (MALDI-TOF): osteonectin with tTG
T4 construct: purchased Biodesign, Saco, Me
T4 sequence (P09486 18-303): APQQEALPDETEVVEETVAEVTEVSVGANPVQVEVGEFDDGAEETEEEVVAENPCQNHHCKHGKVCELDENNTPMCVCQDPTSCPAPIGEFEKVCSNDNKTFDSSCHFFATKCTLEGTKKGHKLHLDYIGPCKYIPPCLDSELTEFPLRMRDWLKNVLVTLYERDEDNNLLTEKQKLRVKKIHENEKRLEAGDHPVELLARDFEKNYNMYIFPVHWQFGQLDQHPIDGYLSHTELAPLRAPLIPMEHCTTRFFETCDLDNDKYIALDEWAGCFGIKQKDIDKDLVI
Procedure: as §1

[1] = Hydrolysis of the hydrocortisone prodrug in normal synovial fluid; type: in vitro ADME, bovine
Procedure: A 30 μL portion of each sample was collected at 0.5, 1, 2, 4, 7, 24, and 48 hours and added to a 60 μL mixture of water:acetonitrile:TFA (79:20:1) to prevent further hydrolysis. This solution also contained 2 mM 6α-methyl prednisolone as an internal standard. The samples were then stored at −20° C. until analyzed with RP-HPLC and eluted with a linear gradient of 24-55% acetonitrile in water with 0.1% TFA. The amount of hydrocortisone hydrolyzed from the prodrug was determined by comparing its peak area to that of 6α-methyl prednisolone. The T50% of the prodrug was calculated from 0.693/S, where S is the mean slope giving the best correlation coefficient in the linear part of the logarithmic curve of unhydrolyzed prodrug (1-[hydrocortisone]) versus time. […] Thirty microliter samples were collected at 10, 20, 30, and 60 minutes and analyzed as previously described.

[2] = Release of hydrocortisone from coupled prodrugs on the articular surface of cartilage
Procedure: After the overnight rinse in Buffer 2 with protease inhibitors and the subsequent washes with Buffer 1, each sample was incubated in 100 μL of sterile Buffer 1, normal bovine synovial fluid, or human osteoarthritic synovial fluid at 37° C. […] At the end of the experiment, the samples were digested and analyzed as previously described.

[3] = tested on: articular surface of cartilage; test: Coupling of hydrocortisone prodrugs to the articular surface of cartilage via tTG; type: biochemical, bovine; conditions: in the absence of tTG
Procedure: Modified tissue samples were immersed in tissue freezing media and frozen at −80° C. until use. Tissue slices (25 μm thick) were cut using a cryostat (Microm HM505N, Carl Zeiss) and the freezing media was removed with 3 washes of Buffer 1. Blocking was performed with 4% goat serum in Buffer 1 (blocking buffer) for 1 hour at room temperature. The tissue sections were then incubated with 10 μg/mL mouse anti-hydrocortisone antibody for 1.5 h in the blocking buffer at room temperature, rinsed 3 times with Buffer 1 for 5 minutes each, and then incubated with fluorescein conjugated goat anti-mouse antibody (1/200) in blocking buffer for 1 hour. Samples were rinsed again with Buffer 1 and then imaged using a Leica epifluorescent microscope (λex=495 nm, λem=520 nm for fluorescein) and a SPOT RT digital camera (Diagnostic Instruments, Sterling Heights, Mich.).

[4] = in the presence of tTG, 50 μM conjugate, 0.5 U/mL tTG, 30 min at 37° C.

T3 sequence (P02751 32-2477, species assumed): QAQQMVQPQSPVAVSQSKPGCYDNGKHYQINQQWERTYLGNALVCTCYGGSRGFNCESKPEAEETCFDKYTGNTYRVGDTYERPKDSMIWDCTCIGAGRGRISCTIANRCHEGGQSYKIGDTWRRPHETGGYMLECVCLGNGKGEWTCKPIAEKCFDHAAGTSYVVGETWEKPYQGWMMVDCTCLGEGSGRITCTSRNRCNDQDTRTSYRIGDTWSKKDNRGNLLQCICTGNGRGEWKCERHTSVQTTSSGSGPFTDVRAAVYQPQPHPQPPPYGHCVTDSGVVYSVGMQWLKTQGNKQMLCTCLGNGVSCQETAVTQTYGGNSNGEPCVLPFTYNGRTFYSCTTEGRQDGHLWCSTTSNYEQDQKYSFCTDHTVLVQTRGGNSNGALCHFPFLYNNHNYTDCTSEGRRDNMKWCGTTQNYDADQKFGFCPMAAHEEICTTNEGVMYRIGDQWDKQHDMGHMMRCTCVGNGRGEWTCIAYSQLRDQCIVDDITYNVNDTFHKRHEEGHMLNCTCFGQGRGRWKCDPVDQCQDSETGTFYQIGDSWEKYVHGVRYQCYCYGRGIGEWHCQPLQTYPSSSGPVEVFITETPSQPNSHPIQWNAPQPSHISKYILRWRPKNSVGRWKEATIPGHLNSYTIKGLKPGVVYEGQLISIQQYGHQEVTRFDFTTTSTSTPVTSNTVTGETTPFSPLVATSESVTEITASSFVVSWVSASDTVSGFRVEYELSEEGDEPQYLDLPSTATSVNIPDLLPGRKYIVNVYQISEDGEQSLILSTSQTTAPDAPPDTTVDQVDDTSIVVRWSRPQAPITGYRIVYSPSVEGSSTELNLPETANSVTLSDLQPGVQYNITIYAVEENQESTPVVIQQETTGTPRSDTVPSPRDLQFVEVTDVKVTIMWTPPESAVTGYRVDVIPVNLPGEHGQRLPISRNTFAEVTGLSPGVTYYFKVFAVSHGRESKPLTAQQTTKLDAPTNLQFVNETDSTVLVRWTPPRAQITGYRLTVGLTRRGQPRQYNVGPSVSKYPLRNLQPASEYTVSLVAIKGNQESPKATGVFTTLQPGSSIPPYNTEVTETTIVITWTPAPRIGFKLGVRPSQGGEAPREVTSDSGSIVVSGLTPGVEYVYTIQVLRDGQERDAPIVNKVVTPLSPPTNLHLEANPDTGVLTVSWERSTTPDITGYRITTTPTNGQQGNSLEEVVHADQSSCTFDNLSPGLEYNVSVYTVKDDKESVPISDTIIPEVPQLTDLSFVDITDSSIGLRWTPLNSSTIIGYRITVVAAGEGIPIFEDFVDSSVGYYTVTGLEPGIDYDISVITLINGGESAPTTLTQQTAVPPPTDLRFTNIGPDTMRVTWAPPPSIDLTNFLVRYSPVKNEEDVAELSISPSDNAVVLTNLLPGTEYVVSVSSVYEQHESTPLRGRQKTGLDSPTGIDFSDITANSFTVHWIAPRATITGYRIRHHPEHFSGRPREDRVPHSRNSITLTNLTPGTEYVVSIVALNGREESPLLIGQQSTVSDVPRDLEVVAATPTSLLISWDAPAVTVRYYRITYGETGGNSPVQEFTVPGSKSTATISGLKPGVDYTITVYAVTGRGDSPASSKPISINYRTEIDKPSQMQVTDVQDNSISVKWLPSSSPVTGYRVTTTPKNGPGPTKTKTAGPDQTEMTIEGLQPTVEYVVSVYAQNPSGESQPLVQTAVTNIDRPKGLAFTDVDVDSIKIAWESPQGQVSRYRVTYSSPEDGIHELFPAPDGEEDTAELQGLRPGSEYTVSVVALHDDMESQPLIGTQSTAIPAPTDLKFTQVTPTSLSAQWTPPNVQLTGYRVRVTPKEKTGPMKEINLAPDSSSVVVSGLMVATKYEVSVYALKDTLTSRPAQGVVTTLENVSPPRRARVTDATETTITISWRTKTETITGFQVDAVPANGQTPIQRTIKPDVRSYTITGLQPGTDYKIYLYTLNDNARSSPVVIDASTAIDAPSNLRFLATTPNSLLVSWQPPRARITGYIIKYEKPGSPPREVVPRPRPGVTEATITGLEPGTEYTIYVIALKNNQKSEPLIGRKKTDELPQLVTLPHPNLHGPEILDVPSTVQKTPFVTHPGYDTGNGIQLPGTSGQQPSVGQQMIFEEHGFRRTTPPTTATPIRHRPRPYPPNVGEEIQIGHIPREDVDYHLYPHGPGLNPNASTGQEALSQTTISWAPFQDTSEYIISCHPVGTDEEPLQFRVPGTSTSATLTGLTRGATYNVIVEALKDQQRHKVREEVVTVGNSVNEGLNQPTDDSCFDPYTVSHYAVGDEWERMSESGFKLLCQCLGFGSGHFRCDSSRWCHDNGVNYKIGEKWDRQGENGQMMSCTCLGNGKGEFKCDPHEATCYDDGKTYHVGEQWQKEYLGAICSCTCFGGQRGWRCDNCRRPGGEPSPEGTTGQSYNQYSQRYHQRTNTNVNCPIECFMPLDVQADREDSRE
T1 sequence (P10451 17-314, species assumed): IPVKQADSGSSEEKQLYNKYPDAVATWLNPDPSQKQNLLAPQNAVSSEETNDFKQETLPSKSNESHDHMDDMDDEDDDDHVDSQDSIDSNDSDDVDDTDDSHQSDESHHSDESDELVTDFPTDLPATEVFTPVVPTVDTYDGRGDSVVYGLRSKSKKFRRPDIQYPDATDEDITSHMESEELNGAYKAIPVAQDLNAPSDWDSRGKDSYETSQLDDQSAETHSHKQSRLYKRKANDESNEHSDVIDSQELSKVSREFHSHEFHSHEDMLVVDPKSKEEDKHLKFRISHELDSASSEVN
T2 sequence (P02458 201-1214 limits assumed): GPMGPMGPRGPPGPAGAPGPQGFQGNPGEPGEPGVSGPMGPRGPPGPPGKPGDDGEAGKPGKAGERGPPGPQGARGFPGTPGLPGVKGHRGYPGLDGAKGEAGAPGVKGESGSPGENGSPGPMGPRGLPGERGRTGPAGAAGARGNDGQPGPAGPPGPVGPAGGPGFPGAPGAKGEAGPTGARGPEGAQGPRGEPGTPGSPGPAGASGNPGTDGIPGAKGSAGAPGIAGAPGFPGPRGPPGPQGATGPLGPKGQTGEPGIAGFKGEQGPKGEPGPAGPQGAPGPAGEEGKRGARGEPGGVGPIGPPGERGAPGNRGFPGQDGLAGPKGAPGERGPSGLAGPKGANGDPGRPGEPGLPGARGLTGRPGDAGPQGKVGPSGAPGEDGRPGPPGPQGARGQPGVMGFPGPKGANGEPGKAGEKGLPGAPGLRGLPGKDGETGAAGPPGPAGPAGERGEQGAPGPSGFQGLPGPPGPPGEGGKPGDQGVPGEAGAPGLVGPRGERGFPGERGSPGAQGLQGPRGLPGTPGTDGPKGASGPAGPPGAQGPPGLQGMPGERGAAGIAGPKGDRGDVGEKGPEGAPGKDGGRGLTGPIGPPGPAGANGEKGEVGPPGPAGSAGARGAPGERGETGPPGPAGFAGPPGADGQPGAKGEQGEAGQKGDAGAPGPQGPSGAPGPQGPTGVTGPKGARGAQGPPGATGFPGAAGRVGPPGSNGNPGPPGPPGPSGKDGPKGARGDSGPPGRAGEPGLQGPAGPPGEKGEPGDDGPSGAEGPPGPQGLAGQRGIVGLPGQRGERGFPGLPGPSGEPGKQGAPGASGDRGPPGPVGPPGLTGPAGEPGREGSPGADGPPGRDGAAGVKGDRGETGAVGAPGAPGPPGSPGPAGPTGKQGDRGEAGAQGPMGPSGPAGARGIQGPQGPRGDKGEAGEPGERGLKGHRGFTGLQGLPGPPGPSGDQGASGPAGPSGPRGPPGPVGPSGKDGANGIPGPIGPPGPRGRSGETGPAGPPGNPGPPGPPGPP

Row | Compound | average depth of peptide coupling (cartilage) | coupling to cartilage (anti-biotin fluorescence) (cartilage sections; [4]) | reactivity / normalized band intensity on western blot (osteopontin) | reactivity / normalized band intensity on western blot (collagen II) | reactivity / normalized band intensity on western blot (Fibronectin) | reactivity / normalized band intensity on western blot (osteonectin) | further results
1 | Biotin-(EO)2-GQQQLG-NH2 [B2Q] | 9.8 μm | enzymatically crosslinked to the cartilage sections | significantly greater normalized band intensity than the B2K and B72K | less reactive toward collagen II in solution |  |  | coupling to cartilage (anti-biotin fluorescence) (cartilage sections; in the absence of tTG): no observed fluorescence
2 | Biotin-(EO)2-FOG-NH2 [B2O] |  | no coupling was detected | did not demonstrate crosslinking | did not demonstrate crosslinking | did not demonstrate crosslinking | did not demonstrate crosslinking | 
3 | Biotin-PEG-GQQQLG-NH2 [B72Q] | 8.6 μm | enzymatically crosslinked to the cartilage sections |  | less reactive toward collagen II in solution |  |  | number of conjugate molecules coupled per protein (MALDI-TOF) (osteopontin): up to two; number of conjugate molecules coupled per protein (MALDI-TOF) (osteonectin): up to 3
4 | C[C@]12CCC(=O)C=C1CC[C@@H]1[C@@H]2[C@@H](O)C[C@@]2(C)[C@H]1CC[C@]2(O)C(=O)COC(=O)CCC(=O)NCC(=O)N[C@@H](Cc1ccccc1)C(=O)N[C@@H](CCCCN)C(=O)NCC(=O)O [TRIP-C, Hydrocortisone-GFKG prodrug] (X1-GFKG-OH) |  |  |  |  |  |  | T50% ([1]; 1.0 mM, 75% normal synovial fluid in Buffer 1, 37° C.): 11.1 min; times more rapid hydrolysis in synovial fluid than in Buffer 1 ([1]; 37° C.): 4; hydrocortisone released from tissue-bound prodrug ([2]; 4 to 48 hours, 37° C., Buffer 1, bovine synovial fluid, human OA synovial fluid): statistical increase in the amount of hydrocortisone released; hydrocortisone hydrolysis from coupled prodrug, TRIP-C compared with TRIP-PC ([2]; any of the fluids utilized): no difference in hydrocortisone hydrolysis
5 | Biotin-PEG-FKG-NH2 [B72K] | 9.8 μm | enzymatically crosslinked to the cartilage sections |  | statistically greater than for B2Q or B72Q; also recorded: reactive toward collagen II | statistically greater than for B2Q or B72Q | statistically greater than for B2Q or B72Q | number of conjugate molecules coupled per protein (MALDI-TOF) (osteopontin): one; number of conjugate molecules coupled per protein (MALDI-TOF) (osteonectin): up to 4
6 | C[C@]12CCC(=O)C=C1CC[C@@H]1[C@@H]2[C@@H](O)C[C@@]2(C)[C@H]1CC[C@]2(O)C(=O)CO [hydrocortisone] |  |  |  |  |  |  | immunofluorescence on articular surface (anti-hydrocortisone) ([3]; 1.0 mM): no immunofluorescence was detected; nonspecific adsorption, hydrocortisone detected on the tissue surface [3]: minimal amount of hydrocortisone detected
7 | Biotin-(EO)2-GNNNLG-NH2 [B2N] |  | no coupling was detected | did not demonstrate crosslinking | did not demonstrate crosslinking | did not demonstrate crosslinking | did not demonstrate crosslinking | 
8 | Biotin-PEG-G-NH2 [B72] |  | lack of fluorescence | did not demonstrate crosslinking | did not demonstrate crosslinking | did not demonstrate crosslinking | did not demonstrate crosslinking | 
9 | Biotin-(EO)2-FKG-NH2 [B2K] | 13 μm | enzymatically crosslinked to the cartilage sections |  | statistically greater than for B2Q or B72Q; also recorded: reactive toward collagen II | statistically greater than for B2Q or B72Q | statistically greater than for B2Q or B72Q | depth of staining (cartilage; undigested cartilage tissue treated with tTG): 5.8 microns; coupling to cartilage (anti-biotin fluorescence) (cartilage sections; in the absence of tTG): no observed fluorescence
